Earlier results as cited in US20150079197A1, “MEDICINE COMPRISING COMBINATION OF GENERAL ANESTHETIC AND HYDROGEN” (MARUISHI PHARMACEUTICAL CO., LTD., priority 2012, published 2015).

Key:
degenerated neurons = conditions: neonatal rats, Non Patent Literature 30

| neurodegeneration (degenerated neurons) | neurodegeneration (developing brains; alone) | Structure (SMILES) | increase in the apoptosis level in the cortex (developing brains; cortex, as compared with the control) | increase in the apoptosis level in the hippocampus (developing brains; hippocampus) |
| --- | --- | --- | --- | --- |
| dose-dependent neurodegeneration |  | FC(F)OC(Cl)C(F)(F)F (stereo not shown) [isoflurane] | 4 fold | 4 fold |
|  | no neurodegeneration | [N-]=[N+]=O [nitrous oxide] |  |  |
